Data as given in PMC12029179, “6-Chlorocoumarin Conjugates with Nucleobases and Nucleosides as Potent Anti-Hepatitis C Virus Agents” (Molecules, 2025).
pEC50, pIC50: −log10 of the molar value. Where two headings read alike, the source gives them in different places. Numbered stars: 1 amine (or outer) side, 2 acyl side, 3 side chain; on linkers, the order of the positions; unused ones are H or OH. Bridge positions count the residues as written; N and C are the ends. Square brackets hold non-standard residues; d marks the D form. Peptide text beside a SMILES is read from it. I, II: the chains in the order shown. Actinocin(9to1) = Cc1c2oc3c(C)ccc(C(=O)[*:1])c3nc-2c(C(=O)[*:2])c(N)c1=O; NMeV = CN[C@H](C(=O)O)C(C)C; Sar = CNCC(=O)O

Tests used:
[1] = tested on: HCV genotype 1b subgenomic replicon; test: Anti-HCV assay in Huh 5-2 cells (luciferase replicon readout); type: cell-based, hepatitis C virus (HCV); conditions: for pEC50: Huh-5-2, Huh 5-2 cells, luminescence; for inhibition at 125 µg/mL: at 125 μg/mL
Text: (§1) An evaluation of the antiviral effects of the conjugated compounds was initially performed in Huh 5-2 cells utilizing the HCV genotype 1b subgenomic replicon system, based on previously reported procedures. By analyzing the dose–response curves, we calculated the concentration of each compound that inhibited the viral replication by 50% (EC50) and the concentration that reduced the host-cell metabolic activity by 50% (CC50). These values were then used to compute the selectivity index (SI = CC50/EC50), which serves as an indicator of a compound’s therapeutic window. Even if an EC50 was determined from the dose–response curve in the antiviral assay, the compounds that were evaluated may not qualify as promising hits. […] It is likely that the antiviral activity observed in the other compounds is due to their nonspecific or pleiotropic effects on the host cell.
Huh 5-2 cells were plated in white, tissue culture-treated 96-well view plates (Packard, Canberra, Canada) at a density of 5 × 10^3 cells per well, using complete Dulbecco’s Modified Eagle Medium (DMEM) containing 250 µg/mL G418. Following 24 h incubation at 37 °C with 5% CO2, the medium was discarded and serial 3-fold dilutions of the test compounds—prepared in complete DMEM lacking G418—were added to reach a final volume of 100 µL per well. After an additional 4-day incubation period under the same conditions, the medium was removed, and luciferase activity was assessed using the Steady-Glo luciferase assay kit (Promega, Leiden, The Netherlands). Luminescence was measured with a Luminoskan Ascent reader (Thermo, Vantaa, Finland). The EC50 value was determined as the compound concentration resulting in a 50% decrease in luciferase signal.

[2] = Host-cell metabolic activity (MTS assay) in Huh 5-2 cells; type: cell-based; conditions: human
Text: as §1

Detroit 551 cells = test: Cell viability (MTS) assay in Detroit 551 cells; type: cell-based; conditions: for pIC50: Homo sapiens, read-out: IC50 (cell survival rate of 50%)
Experimental: Detroit 551 cells, a human fibroblast cell line, are routinely employed to assess both acute and chronic toxicity in normal human cells. Evaluating the cytotoxicity of compounds in Detroit 551 cells helps to identify potential safety concerns early in drug development. The three promising leads, 7a, 7b, and 18, were tested in a Detroit 551 assay using the antineoplastic and antibiotic agent actinomycin D as a positive control.
Detroit 551 cells were harvested and seeded into a 96-well plate, then incubated at 37 °C for 24 h. A serial dilution of the test compound was prepared in eight three-fold concentrations (20,000 nM, 6667 nM, 2222 nM, 741 nM, 247 nM, 82 nM, 27 nM, and 9 nM), and 10 µL of each dilution was added to the corresponding wells. The plate was then returned to 37 °C for an additional 72 h of incubation. After this incubation, a 3-(4,5-dimethylthiazol-2-yl)-5-(3-carboxymethoxyphenyl)-2-(4-sulfophenyl)-2H-tetrazolium (MTS) assay medium (mixed in a 2:0.1 ratio of MTS–phenazine methyl sulfate (PMS)) was prepared. The plate was moved to a biological safety cabinet, and 21 µL of the MTS medium was added to each well. The plate was then incubated at 37 °C for 90 min before absorbance was measured at 490 nm on a Victor 2 plate reader (PerkinElmer, Inc., Waltham, MA, USA). Data were subsequently analyzed to assess cytotoxicity.

Huh 9-13 cells = test: Host-cell metabolic activity in Huh 9-13 cells; type: cell-based
[3] = Host-cell metabolic activity in Huh 9-13 cells; type: cell-based; conditions: human
HCV subgenomic replicon = test: Anti-HCV assay in Huh 9-13 cells (real-time quantitative RT-PCR of replicon RNA); type: cell-based, hepatitis C virus (HCV); conditions: for % replicon RNA: normalized against no-drug control
Experimental: Furthermore, the antiviral activity of three of the hits (i.e., 7a, 7b, and 18) was validated by evaluation of the dose–response effect of treatment with the compounds at the level of viral RNA replication in the Huh 9-13 assay system. The real-time quantitative RT-PCR readout was used.
Huh 9-13 cells were seeded at 5 × 10^3 cells per well into 96-well plates containing complete DMEM supplemented with 1000 µg/mL G418. […] After 4 days of incubation, the culture medium was removed, and the cell monolayers were washed once with phosphate-buffered saline (PBS). Cells were then lysed using 350 µL of RLT buffer (Qiagen, Venlo, The Netherlands) as per the manufacturer’s protocol, and the lysates were stored at −80 °C for future analysis. Upon completion of sample collection, RNA was extracted, and the samples were analyzed through quantitative real-time PCR to measure their HCV replicon content. The real-time RT-PCR data for all samples were calibrated against the “no-drug control”.
* After collection of all samples, RNA was extracted and samples were analyzed by quantitative real-
time PCR for their HCV replicon content. Real-time RT-PCR values of all assayed samples were
normalized against the “no-drug control”.

[4] = Hepatitis C virus, primary screening, tested starting at 50 μg/mL
[5] = Huh 5-2 cells, primary screening starting at 50 μg/mL
[6] = primary screening, tested starting at 50 μg/mL
[7] = Hepatitis C virus, secondary screen starting at 125 μg/mL, average of triplicate
[8] = Huh 5-2 cells, secondary screen starting at 125 μg/mL
[9] = secondary screen starting at 125 μg/mL
[10] = Hepatitis C virus, Huh 5-2 cells

In the case of `Cc1cn([C@H]2C[C@H](O)[C@@H](CO)O2)c(=O)nc1SCc1cc2cc(Cl)ccc2oc1=O` [Compound 16b, 4-[(6′-Chlorocoumarin-3′-yl)methylthio]thymidine], the pEC50 [1, 4] was 4.23, the “SI (CC50/EC50)” value [1, 5] was greater than 1.9 and the CC50 [2, 6] was greater than 111 µM.
In the case of `Nc1nc(SCc2cc3cc(Cl)ccc3oc2=O)c2nc[nH]c2n1` [Compound 9a, 2-Amino-6-[(6′-chlorocoumarin-3′-yl)methylthio]purine], the pEC50 [1, 4] was 4.19, the pEC50 [1, 7] was 4.32 and the “SI (CC50/EC50)” value [1, 5] was greater than 2.1. The “SI (CC50/EC50)” value [1, 8] was greater than 7.3, the CC50 [2, 6] was greater than 139 µM and the CC50 [2, 9] was greater than 347 µM.
In the case of `Cc1c[nH]c(=O)nc1SCc1cc2cc(Cl)ccc2oc1=O` [Compound 11b, 4-(6′-Chlorocoumarin-3′-yl)methylthio-5-methyluracil], the pEC50 [1, 4] was 4.80, the “SI (CC50/EC50)” value [1, 5] was greater than 9.1 and the CC50 [2, 6] was greater than 149 µM.
In the case of `Nc1nc(SCc2cc3cc(Cl)ccc3oc2=O)c2ncn([C@@H]3O[C@H](CO)[C@@H](O)[C@H]3O)c2n1` [Compound 9b, 2-Amino-6-(6′-chlorocoumarin-3′-yl)methylthio-9-(β-D-ribofuranos-1″-yl)purine], the pEC50 [1, 4] was 4.82, the “SI (CC50/EC50)” value [1, 5] was greater than 6.9 and the CC50 [2, 6] was greater than 102 µM.
With `Nc1ncnc2[nH]c(SCc3cc4cc(Cl)ccc4oc3=O)nc12` [Compound 3a, 8-[(6′-Chlorocoumarin-3′-yl)methylthio]adenine] the pEC50 [1, 4] was 5.00, the “SI (CC50/EC50)” value [1, 5] was 6.7 and the CC50 [2, 6] was 69 µM.
In the case of `O=c1nc(SCc2cc3cc(Cl)ccc3oc2=O)cc[nH]1` [Compound 11a, 4-[(6′-Chlorocoumarin-3′-yl)methylthio]uracil], the pEC50 [1, 4] was 4.74, the “SI (CC50/EC50)” value [1, 5] was greater than 8.6 and the CC50 [2, 6] was greater than 156 µM.
With `O=c1ccnc(SCc2cc3cc(Cl)ccc3oc2=O)[nH]1` [Compound 18, 2-[(6′-Chlorocoumarin-3′-yl)methylthio]uracil] the “cell death at highest tested concentration” value (Detroit 551 cells; Detroit 551 cells, 20 μM) was “none of the three compounds induced cell death”, the pIC50 (Detroit 551 cells; Detroit 551 cells, 72 h incubation, tested starting at 20.0 μM) was less than 4.70 and the pEC50 [1, 4] was 4.32. For the same molecule, the pEC50 [1, 7] was 4.06, the inhibition at 125 µg/mL [1, 10] was greater than 90% and the “SI (CC50/EC50)” value [1, 5] was greater than 3.2. The “SI (CC50/EC50)” value [1, 8] was greater than 4.5, the “% cell metabolism” value (Huh 9-13 cells; 0.977 µg/ml) was 103% and the “% cell metabolism” value (Huh 9-13 cells; 1.953 µg/ml) was 92%. For the same molecule, the “% cell metabolism” value (Huh 9-13 cells; 3.906 µg/ml) was 109%, the “% cell metabolism” value (Huh 9-13 cells; 7.813 µg/ml) was 101% and the “% cell metabolism” value (Huh 9-13 cells; 15.625 µg/ml) was 98%. For the same molecule, the “% cell metabolism” value (Huh 9-13 cells; 31.25 µg/ml) was 103%, the “% cell metabolism” value (Huh 9-13 cells; 62.50 µg/ml) was 99% and the “% cell metabolism” value (Huh 9-13 cells; 125 µg/ml) was 104%. The CC50 ([3]; compound 18 tested starting at 125 µg/mL) was greater than 390 µM, the CC50 ([3]; supplement dose-response data) was greater than 125 µg/mL and the “SI (CC50/EC50)” value (HCV subgenomic replicon) was greater than 41. The “Quantity (HCV replicon RNA, real-time PCR)” value (“Quantity” for short) (HCV subgenomic replicon; 0.977 µg/ml) was 2.11E-03, the “% replicon RNA” value (HCV subgenomic replicon; 0.977 µg/ml) was 66% and the “Quantity” value (HCV subgenomic replicon; 1.953 µg/ml) was 2.06E-03. For the same molecule, the “% replicon RNA” value (HCV subgenomic replicon; 1.953 µg/ml) was 64%, the “Quantity” value (HCV subgenomic replicon; 3.906 µg/ml) was 1.40E-03 and the “% replicon RNA” value (HCV subgenomic replicon; 3.906 µg/ml) was 44%. The “Quantity” value (HCV subgenomic replicon; 7.813 µg/ml) was 1.12E-03, the “% replicon RNA” value (HCV subgenomic replicon; 7.813 µg/ml) was 35% and the “Quantity” value (HCV subgenomic replicon; 15.625 µg/ml) was 4.59E-04. For the same molecule, the “% replicon RNA” value (HCV subgenomic replicon; 15.625 µg/ml) was 14%, the “Quantity” value (HCV subgenomic replicon; 31.25 µg/ml) was 2.30E-04 and the “% replicon RNA” value (HCV subgenomic replicon; 31.25 µg/ml) was 7%. For the same molecule, the “Quantity” value (HCV subgenomic replicon; 62.50 µg/ml) was 6.77E-05, the “% replicon RNA” value (HCV subgenomic replicon; 62.50 µg/ml) was 2% and the “Quantity” value (HCV subgenomic replicon; 125 µg/ml) was 4.20E-05. The “% replicon RNA” value (HCV subgenomic replicon; 125 µg/ml) was 1%, the pEC50 (HCV subgenomic replicon; Hepatitis C virus, real-time quantitative RT-PCR readout) was 5.03 and the EC50 (HCV subgenomic replicon; Hepatitis C virus, supplement dose-response data) was 3 µg/mL. It also gave a CC50 [2, 6] greater than 156 µM and a CC50 [2, 9] greater than 390 µM.
`Nc1ccnc(SCc2cc3cc(Cl)ccc3oc2=O)n1` [Compound 20, 4-Amino-2-[(6′-chlorocoumarin-3′-yl)methylthio]pyrimidine] gave a pEC50 [1, 4] of 4.28, a pEC50 [1, 7] of 4.68 and an inhibition at 50 µg/mL ([1]; Hepatitis C virus, Huh 5-2 cells, at 50 μg/mL) of 69.8%. For the same molecule, the inhibition at 125 µg/mL [1, 10] was less than 80%, the “SI (CC50/EC50)” value [1, 5] was greater than 2.9 and the “SI (CC50/EC50)” value [1, 8] was greater than 19. It also gave a CC50 [2, 6] greater than 156 µM and a CC50 [2, 9] greater than 391 µM.
For `Nc1nc2[nH]c(SCc3cc4cc(Cl)ccc4oc3=O)nc2c(=O)[nH]1` [Compound 5b, 8-[(6’-Chlorocoumarin-3’-yl)methylthio]guanine], the pEC50 [1, 4] was 4.29, the “SI (CC50/EC50)” value [1, 5] was greater than 2.6 and the CC50 [2, 6] was greater than 133 µM.
`Nc1nc2c(nc(SCc3cc4cc(Cl)ccc4oc3=O)n2[C@@H]2O[C@H](CO)[C@@H](O)[C@H]2O)c(=O)[nH]1` [Compound 5a, 8-[(6′-Chlorocoumarin-3′-yl)methylthio]guanosine] gave a pEC50 [1, 4] of less than 4.01 and a CC50 [2, 6] greater than 98 µM.
In the case of `Nc1ncnc2c1nc(SCc1cc3cc(Cl)ccc3oc1=O)n2[C@@H]1O[C@H](CO)[C@@H](O)[C@H]1O` [Compound 3b, 8-[(6′-Chlorocoumarin-3′-yl)methylthio]adenosine], the pEC50 [1, 4] was 4.49, the “SI (CC50/EC50)” value [1, 5] was 1.5 and the CC50 [2, 6] was 48 µM.
In the case of `O=c1oc2ccc(Cl)cc2cc1CSc1ccn([C@@H]2O[C@H](CO)[C@@H](O)[C@H]2O)c(=O)n1` [Compound 16a, 4-[(6′-Chlorocoumarin-3′-yl)methylthio]uridine], the pEC50 [1, 4] was 4.80, the “SI (CC50/EC50)” value [1, 5] was greater than 6.8 and the CC50 [2, 6] was greater than 108 µM.
`Cc1c2oc3c(C)ccc(C(=O)N[C@@H]4C(=O)N[C@H](C(C)C)C(=O)N5CCC[C@H]5C(=O)N(C)CC(=O)N(C)[C@@H](C(C)C)C(=O)O[C@@H]4C)c3nc-2c(C(=O)N[C@@H]2C(=O)N[C@H](C(C)C)C(=O)N3CCC[C@H]3C(=O)N(C)CC(=O)N(C)[C@@H](C(C)C)C(=O)O[C@@H]2C)c(N)c1=O` [Actinomycin D, actinomycin D, reference compound] (I: T[dV]P[Sar][NMeV] / II: T[dV]P[Sar][NMeV]; ester I:1-I:C, II:1-II:C; linker I:N-II:N via Actinocin(9to1)) gave a pIC50 (Detroit 551 cells; Detroit 551, 72 h) of 4.81.
